The record followed here is patent publication US20100105652A1, “PURINES AS CYSTEINE PROTEASE INHIBITORS” (Glaxo Group Limited, priority 2007, published 2010).

Structures can show the parent of a compound that is named as a salt.

For one experiment, the target named is T1, Falcipain-3 (Plasmodium falciparum, UniProt Q8IIL0).
T1 sequence (Q8IIL0 243-492): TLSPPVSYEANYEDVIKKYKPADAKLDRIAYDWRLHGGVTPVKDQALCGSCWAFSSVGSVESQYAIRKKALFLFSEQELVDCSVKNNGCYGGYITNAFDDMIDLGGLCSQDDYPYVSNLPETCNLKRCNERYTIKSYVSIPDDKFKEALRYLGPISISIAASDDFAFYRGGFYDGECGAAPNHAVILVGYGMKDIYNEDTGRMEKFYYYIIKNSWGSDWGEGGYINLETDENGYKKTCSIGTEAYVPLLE
The experiment in a line: falcipain-3 enzymatic assay (fluorogenic substrate H-D-VLR-AFC, endpoint). Type of experiment: biochemical. Conditions: parasitic recombinant enzyme, pH 5.5, quenched after 60 minutes. On the procedure:
(§1) 1) Determination of Falcipain-2, Falcipain-3, Vivapain-2, and Cathepsin S Proteolytic Catalytic Activity
(§2) Assays for Falcipain-2, Falcipain-3, and Vivapain-2 are carried out with parasitic recombinant enzymes. Cathepsins S is carried out with human recombinant enzymes. Standard assay conditions for the determination of kinetic constants used a fluorogenic peptide substrate, typically H-D-VLR-AFC (Falcipain-2, Falcipain-3, Vivapain-2) or KQKLR-AMC (Cathepsin S) and are determined in 100 mM sodium acetate, pH 5.5, containing 10 mM DTT and 0.5 mM CHAPS (Falcipain-2, Falcipain-3, Vivapain-2), or 50 mM MES, pH 6.5, containing 0.5 mM CHAPS, 10 mM L-CYS, 5 mM EDTA (Cathepsin S). Stock substrate solutions are prepared at 20 mM in DMSO. The activity assays contained 30 uM substrate (Falcipain-2, Falcipain-3, Vivapain-2), and 30 uM substrate (Cathepsin S). All assays contained 1% DMSO. […] All assays are conducted at ambient temperature as end point assays being quenched after 60 minutes with the exception of Cathepsin S at 90 minutes, with 16.6 uM E-64 in 1% DMSO. Product formation (AFC or AMC) is determined from fluorescence (excitation at 405 nm; emission at 530 nm, AFC, or excitation at 360 nm; emission at 460 nm, AMC) monitored with a LJL Aquest (Molecular Devices) fluorescent plate reader. In the case of kinetic reads (used in mechanism of action studies), the reaction is not quenched but is read in the plate reader every 3 minutes for approximately 90 minutes. In addition, the mechanism of action studies for Falcipain-2 utilize Z-LR-AMC as the substrate. Product formation is determined from the fluorescence of AMC, measured with a LJL Acquest (Molecular Devices) fluorescent plate reader (excitation at 360 nm; emission at 460 nm).
(§3) Potential inhibitors are evaluated using the quenched read (endpoint) method. Assays are carried out in the presence of variable concentrations of test compound. Reactions are initiated by addition of enzyme and substrate to wells containing inhibitor stamped in 100% DMSO. For endpoint assays, the reaction is quenched with the addition of E64. Dose response data is fit to an IC50 curve with preset fitting tools according to equation 1:
(§4) y=a+(b−a)/(1+(10^X/10^C)^d) (1)
(§5) where y is the response at a particular inhibitor concentration x, a is the minimum response value, b is the maximum response value, c is the IC50, and d is the slope of the IC50 curve. Assuming the compound is a competitive inhibitor, the apparent KI can be calculated from IC50, as shown in equation 2: […]

Experiment [1] has as its system Plasmodium falciparum parasite. Kind of experiment: whole cell activity against the Plasmodium falciparum parasite. Type of experiment: cell-based. The text has this:
Equation 7 describes the apparent KI for competitive compounds and was substituted into equations 5 and 6 to generate the relevant binding constants from the fitting routine. In addition, the initial and final velocities were fit to equation 3 to further define the binding mechanism and potency. A complete discussion of this kinetic treatment has been fully described (Morrison et al., Adv. Enzymol. Relat. Areas Mol. Biol., 1988, 61, 201). 2) Determination of Whole Cell Activity Against the Plasmodium falciparum Parasite Compounds can be evaluated for whole cell activity against the Plasmodium falciparum parasite according to the procedure described in Sijwali S, and Rosenthal P. J., (2004) Proceedings of the National Academy of Sciences of the United States of America (PNAS) 101(13), 4384-4389 (see in particular “Measurement of Parasite Growth rates and Inhibitor Sensitivity” on page 4385); IC50 values can be calculated as described in Singh A. and Rosenthal P. J., (2001) Antimicrobial Agents and Chemotherapy 45(3), 949-951 (see in particular page 950, first column); synchronised parasites can be prepared as described in Divo A. A. et al., (1985) Protozool. 32, 59-64.

The target in the next experiment is T2, Falcipain-2 (Plasmodium falciparum, UniProt Q8I6U4).
T2 sequence (Q8I6U4 244-484): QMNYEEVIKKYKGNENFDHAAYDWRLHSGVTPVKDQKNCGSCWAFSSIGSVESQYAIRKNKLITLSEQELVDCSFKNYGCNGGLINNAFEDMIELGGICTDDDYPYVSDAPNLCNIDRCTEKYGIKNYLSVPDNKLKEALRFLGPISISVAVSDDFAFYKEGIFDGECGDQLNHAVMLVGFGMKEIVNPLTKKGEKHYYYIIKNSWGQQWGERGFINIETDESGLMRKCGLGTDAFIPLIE
The experiment in a line: falcipain-2 enzymatic assay (fluorogenic substrate H-D-VLR-AFC, endpoint). Conditions: parasitic recombinant enzyme, pH 5.5, quenched after 60 minutes. The format is biochemical. On the procedure:
as §1, §2, §3, §4, §5

On to `CN(C)CCn1cnc2c(N(NC(=O)c3ccc(CN4CCN(C)CC4)cc3)C3CCCC3)nc(C#N)nc21` [Example 40, N′-{2-cyano-9-[2-(dimethylamino)ethyl]-9H-purin-6-yl}-N′-cyclopentyl-4-[(4-methyl-1-piperazinyl)methyl]benzohydrazide trifluoroacetate], for which the values for the IC50 (on Falcipain-3; in experiment [1]; at Falcipain-2) were 250 to 400 nM, 15 to 150 nM and 2.5 to 15 nM, respectively.

Take `CN(C)CCn1cnc2c(N(CC3CCCC3)NC(=O)OC(C)(C)C)nc(C#N)nc21` [Example 13, 1,1-dimethylethyl 2-{2-cyano-9-[2-(dimethylamino)ethyl]-9H-purin-6-yl}-2-(cyclopentylmethyl)hydrazinecarboxylate trifluoroacetate]: the IC50 at Falcipain-3 is 15 to 150 nM; in experiment [1], 15 to 150 nM; on Falcipain-2, no more than 1 nM.

As for `CN1CCC(N2CCN(Cc3ccc(C(=O)NN(CC4CCCC4)c4nc(C#N)nc5c4ncn5C)cc3)CC2)CC1` [Example 18, N′-(2-cyano-9-methyl-9H-purin-6-yl)-N′-(cyclopentylmethyl)-4-({[4-(1-methyl-4-piperidinyl)-1-piperazinyl]methyl}benzohydrazide trifluoroacetate], the half-maximal inhibitory concentration (IC50) on Falcipain-3 was 15 to 150 nM; in experiment [1], 15 to 150 nM; on Falcipain-2, 2.5 to 15 nM.

As for `CN1CCN(Cc2ccc(C(=O)NN(c3nc(C#N)nc4c3ncn4C(=O)N3CCN(C)CC3)C3CCCCC3)cc2)CC1` [Example 38, N′-{2-cyano-9-[(4-methyl-1-piperazinyl)carbonyl]-9H-purin-6-yl}-N′-cyclohexyl-4-[(4-methyl-1-piperazinyl)methyl]benzohydrazide trifluoroacetate], the values for the IC50 (at Falcipain-3; in experiment [1]; on Falcipain-2) were 2.5 to 15 nM, 15 to 150 nM and no more than 1 nM, respectively.

In the case of `CN1CCN(c2cccc(C(=O)NN(c3nc(C#N)nc4c3ncn4C)C3CCCCC3)c2)CC1` [Example 36, N′-(2-cyano-9-methyl-9H-purin-6-yl)-N′-cyclohexyl-3-(4-methyl-1-piperazinyl)benzohydrazide trifluoroacetate], the half-inhibitory concentration (IC50) lay within 15 to 150 nM at Falcipain-3, 15 to 150 nM in experiment [1] and 2.5 to 15 nM at Falcipain-2.

Regarding `CN1CCN(c2ccc(C(=O)NN(c3nc(C#N)nc4c3ncn4C)C3CCCC3)cc2)CC1` [Example 32, N′-(2-cyano-9-methyl-9H-purin-6-yl)-N′-cyclopentyl-4-(4-methyl-1-piperazinyl)benzohydrazide trifluoroacetate], the concentration for half-maximal inhibition (IC50) at Falcipain-3 was in the range of 15 to 150 nM; in experiment [1] it was 250 to 400 nM; at Falcipain-2, 2.5 to 15 nM.

For the compound `CN1CCN(C(=O)n2cnc3c(N(NC(=O)OC(C)(C)C)C4CCCCC4)nc(C#N)nc32)CC1` [Example 35, 1,1-dimethylethyl 2-{2-cyano-9-[(4-methyl-1-piperazinyl)carbonyl]-9H-purin-6-yl}-2-cyclohexylhydrazinecarboxylate trifluoroacetate], the IC50 on Falcipain-3 is 1 to 2.5 nM; in experiment [1], 150 to 250 nM; on Falcipain-2 it was no more than 1 nM.

With `CN(C)CCn1cnc2c(N(CC3CCCC3)NC(=O)c3ccc(CN4CCN(C)CC4)cc3)nc(C#N)nc21` [Example 14, N′-{2-cyano-9-[2-(dimethylamino)ethyl]-9H-purin-6-yl}-N′-(cyclopentylmethyl)-4-[(4-methyl-1-piperazinyl)methyl]benzohydrazide trifluoroacetate], the IC50 was 15 to 150 nM on Falcipain-3, 15 to 150 nM in experiment [1] and 2.5 to 15 nM at Falcipain-2.

Turning to `CC(=O)N1CCC(N(NC(=O)OC(C)(C)C)c2nc(C#N)nc3c2ncn3C)CC1` [Example 20, 1,1-dimethylethyl-2-(1-acetyl-4-piperidinyl)-2-(2-cyano-9-methyl-9H-purin-6-yl)hydrazinecarboxylate], the IC50 on Falcipain-3 is 150 to 250 nM; in experiment [1], 150 to 250 nM; at Falcipain-2, 1 to 2.5 nM.

On to `CN(C)CCCn1cnc2c(N(CC3CCCC3)NC(=O)OC(C)(C)C)nc(C#N)nc21` [Example 12, 1,1-dimethylethyl 2-{2-cyano-9-[3-(dimethylamino)propyl]-9H-purin-6-yl}-2-(cyclopentylmethyl)hydrazinecarboxylate trifluoroacetate], for which the results for the half-inhibitory concentration (IC50) (on Falcipain-3; in experiment [1]; at Falcipain-2) were 15 to 150 nM, 15 to 150 nM and 1 to 2.5 nM, respectively.

Turning to `CN(C)CCCN(C(=O)OC(C)(C)C)N(CC1CCCC1)c1nc(C#N)nc2c1ncn2CCCN(C)C` [Example 16, 1,1-dimethylethyl 2-{2-cyano-9-[3-(dimethylamino)propyl]-9H-purin-6-yl}-2-(cyclopentylmethyl)-1-[3-(dimethylamino)propyl]hydrazinecarboxylate trifluoroacetate], the IC50 fell in the range of 150 to 250 nM at Falcipain-3, 2.5 to 15 nM in experiment [1] and 2.5 to 15 nM at Falcipain-2.

In the case of `CN(C)CCCCNC(=O)n1cnc2c(N(NC(=O)OC(C)(C)C)C3CCCC3)nc(C#N)nc21` [Example 49, 1,1-dimethylethyl 2-[2-cyano-9-({[4-(dimethylamino)butyl]amino}carbonyl)-9H-purin-6-yl]-2-cyclopentylhydrazinecarboxylate trifluoroacetate], the results for the IC50 (on Falcipain-3; in experiment [1]; at Falcipain-2) were 15 to 150 nM, greater than 1000 nM and 2.5 to 15 nM, respectively.

As to `Cn1cnc2c(N(NC(=O)c3ccc(CN4CC(N5CCCC5)C4)cc3)C3CCCCC3)nc(C#N)nc21` [Example 11, N′-(2-cyano-9-methyl-9H-purin-6-yl)-N′-cyclohexyl-4-({[3-(1-pyrrolidinyl)-1-azetidinyl]methyl}benzohydrazide trifluoroacetate], the results for the IC50 (at Falcipain-3; in experiment [1]; on Falcipain-2) were 15 to 150 nM, 15 to 150 nM and 2.5 to 15 nM, respectively.

Turning to `CN(C)CCn1cnc2c(N(NC(=O)c3cccc(-c4ccc(CN5CCN(C)CC5)cc4)n3)C3CCCC3)nc(C#N)nc21` [Example 42, N′-{2-cyano-9-[2-(dimethylamino)ethyl]-9H-purin-6-yl}-N′-cyclopentyl-6-{4-[(4-methyl-1-piperazinyl)methyl]phenyl}-2-pyridinecarbohydrazide trifluoroacetate], the IC50 on Falcipain-3 lay within 15 to 150 nM; in experiment [1], 15 to 150 nM; at Falcipain-2, 2.5 to 15 nM.

In the case of `CN(C)CCn1cnc2c(N(NC(=O)OC(C)(C)C)C3CCCC3)nc(C#N)nc21` [Example 39, 1,1-dimethylethyl 2-{2-cyano-9-[2-(dimethylamino)ethyl]-9H-purin-6-yl}-2-cyclopentylhydrazinecarboxylate trifluoroacetate], the values for the IC50 (on Falcipain-3; in experiment [1]; on Falcipain-2) were 15 to 150 nM, 15 to 150 nM and 2.5 to 15 nM, respectively.

On to `CN(C)CCn1cnc2c(N(NC(=O)c3ccc(CN4CCN(C)CC4)cc3)C3CCCCC3)nc(C#N)nc21` [Example 44, N′-{2-cyano-9-[2-(dimethylamino)ethyl]-9H-purin-6-yl}-N′-cyclohexyl-4-[(4-methyl-1-piperazinyl)methyl]benzohydrazide trifluoroacetate], for which the IC50 at Falcipain-3 fell in the range of 15 to 150 nM; in experiment [1], 15 to 150 nM; on Falcipain-2 it was 2.5 to 15 nM.

The term IC50 denotes the midpoint of a concentration-inhibition curve.
